Source: article PMC6684646, “Lysosomal integral membrane protein-2 (LIMP-2/SCARB2) is involved in lysosomal cholesterol export” (Nature Communications, 2019)

Key:
[1] = molecular target: T1, LIMP-2 ectodomain (His6.hLIMP-2(aa35-430)) (Homo sapiens, UniProt Q14108); test: UV crosslinking and click rhodamine, SDS-PAGE; type: binding; conditions: covalent; labelled compound; 50 µM probe, 12 h at 4 °C, UV 15 min
T1 construct: gene SCARB2; luminal domain aa 35-430, N-terminal His6 tag (cloned after a protein A tag)
T1 sequence (Q14108 35-430): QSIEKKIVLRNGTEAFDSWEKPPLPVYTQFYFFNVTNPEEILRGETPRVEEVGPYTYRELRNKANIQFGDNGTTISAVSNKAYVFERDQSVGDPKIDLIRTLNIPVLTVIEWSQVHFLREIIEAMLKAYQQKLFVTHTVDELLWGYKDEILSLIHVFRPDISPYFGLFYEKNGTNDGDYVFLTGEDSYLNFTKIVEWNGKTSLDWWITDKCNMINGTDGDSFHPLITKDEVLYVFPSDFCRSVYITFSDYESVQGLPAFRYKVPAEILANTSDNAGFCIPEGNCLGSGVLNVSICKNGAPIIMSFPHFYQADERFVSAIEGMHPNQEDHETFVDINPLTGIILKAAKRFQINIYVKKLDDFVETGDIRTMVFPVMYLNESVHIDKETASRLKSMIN

[2] = molecular target: T1, LIMP-2 ectodomain (His6.hLIMP-2(aa35-430)); test: microscale thermophoresis; type: binding; conditions: 25 nM protein labelled with Red-tris-NTA; 300 mM NaAc pH 6.0, 150 mM NaCl, 0.05% Tween 20, 0.1% Fos-Choline 13; room temperature; read-out: EC50
Description: microscale thermophoresis on LIMP-2 ectodomain (His6.hLIMP-2(aa35-430)) | direct interaction between purified, soluble His-tagged LIMP-2 protein labeled with Red-tris-NTA dye and cholesterol

| SMILES | UV crosslinking and click rhodamine, SDS-PAGE [1] | Kd [2] [nM] |
| --- | --- | --- |
| C#CCCCC1(CCCCCCCCC(=O)O)N=N1 [pacFA] | fatty acids, ceramide and sphingosine bound with lower affinity |  |
| CC(C)CCC[C@@H](C)[C@H]1CC[C@H]2[C@@H]3CC=C4C[C@@H](O)CC[C@]4(C)[C@H]3CC[C@]12C [cholesterol] |  | 112 ± 32 |
| C#CCCCC1(CCCCCCCCC(=O)N[C@@H](CO)[C@H](O)/C=C/CCCCCCCCCCCCC)N=N1 [pacFA ceramide] | fatty acids, ceramide and sphingosine bound with lower affinity |  |
| C#CCCCC1(CCCCCCCC/C=C/[C@@H](O)[C@@H](N)CO)N=N1 [photoclick sphingosine] | fatty acids, ceramide and sphingosine bound with lower affinity |  |
